The nature of series [1]: Drug recovery in Wistar rat urine treated with (2S)-Pterosin at 100 mg/kg, po administered via gavage measured up to 24 hrs by reverse-phase HPLC analysis. It counts as ADME, organism-based. On the set-up: dose 100 mg/kg, route oral. The settings on record: in vivo.
The nature of series [2]: Drug recovery in Wistar rat urine assessed as retention time treated with (2S)-Pterosin at 100 mg/kg, po administered via gavage measured up to 24 hrs by HRESIMS analysis. It counts as ADME, organism-based. On the set-up: dose 100 mg/kg, route oral. The settings on record: in vivo.
The nature of series [3]: Drug recovery in Wistar rat urine at 100 mg/kg, po administered via gavage measured up to 24 hrs by HRESIMS analysis. Particulars: read-out: Drug recovery; call rule not given here. It counts as ADME, organism-based. On the set-up: dose 100 mg/kg, route oral.
Series [4] is described as follows: Drug recovery in Wistar rat urine assessed as retention time at 100 mg/kg, po administered via gavage measured up to 24 hrs by HRESIMS analysis. On the set-up: dose 100 mg/kg, route oral. It counts as ADME, organism-based. Particulars: in vivo.
A short description of series [5]: Drug recovery in Wistar rat urine at 100 mg/kg, po administered via gavage measured up to 24 hrs by reverse-phase HPLC analysis. It counts as ADME, organism-based. On the set-up: dose 100 mg/kg, route oral. The settings on record: in vivo.
Series [6] deals with HeLa. The series can be described thus: Cytotoxicity against human HeLa cells. It counts as cell-based.
A short description of series [7]: Cytotoxicity against human HL60 cells. The settings on record: HL-60. It counts as cell-based.

Converted amounts (≈) assume the structure as drawn.

From ChEMBL document CHEMBL3526012, “Metabolism of (2S)-pterosin A: identification of the phase I and phase II metabolites in rat urine” (Drug Metab Dispos, 2012) come the findings set out here.

With `Cc1cc2c(c(C)c1CC(=O)O[C@@H]1O[C@H](C(=O)O)[C@@H](O)[C@H](O)[C@H]1O)C(=O)[C@](C)(CO)C2`, the Drug recovery entry in series [1] is “metabolite_detected”. Also, in series [2], the Retention_time came out at 24.6 min.

In the case of `Cc1cc2c(c(C)c1CCO)C(=O)[C@H](C)[C@@H]2O`, the Drug recovery result in series [1] is reported as “metabolite_detected”. Further, in series [2], the Retention_time came to 25.27 min.

For the molecule `Cc1cc2c(c(C)c1CC(=O)O)C(=O)[C@](C)(CO)[C@@H]2O`, the Drug recovery entry in series [1] is listed as “metabolite_detected”. The Retention_time in series [2] came out at 26.11 min.

Turning to `Cc1cc2c(c(C)c1CCO)C(=O)[C@@H](C)[C@@H]2O`, the Drug recovery result in series [1] is on record as “metabolite_detected”. Besides, the Retention_time in series [2] is given as 27.6 min.

For `Cc1cc2c(c(C)c1CCO[C@@H]1O[C@H](C(=O)O)[C@@H](O)[C@H](O)[C@H]1O)C(=O)[C@](C)(CO)C2`, in series [1], the Drug recovery entry is “metabolite_detected”. For the same molecule, in series [2], the Retention_time worked out at 29.61 min.

`Cc1c2c(cc3c1C(=O)[C@](C)(CO)C3)C(=O)OCC2`: in series [1], the Drug recovery entry is listed as “metabolite_detected”. Moreover, in series [2], the Retention_time is recorded as 29.61 min.

Consider `Cc1cc2c(c(C)c1CCO[C@@H]1O[C@H](C(=O)O)[C@@H](O)[C@H](O)[C@H]1O)C(=O)C(C)C2` (stereo partly drawn), for which, in series [1], the Drug recovery result is “metabolite_detected”. For the same molecule, the Retention_time in series [2] turned out to be 44.2 min.

`COC(=O)Cc1c(C)cc2c(c1C)C(=O)[C@](C)(CO)C2`: in series [1], the Drug recovery entry is “metabolite_detected”. Besides, in series [2], the Retention_time is 45.33 min.

As to `Cc1cc2c(c(C)c1C)C(=O)[C@](C)(CO)[C@@H]2O`, in series [1], the Drug recovery entry is “metabolite_detected”. In series [2], the Retention_time worked out at 46.2 min.

For the molecule `Cc1cc2c(c(C)c1CCO)C(=O)[C@](C)(CO)C2`, the dose excreted at 24 h in series [3] was 2.64%. Moreover, the Retention_time in series [4] amounted to 36.51 min. In series [5], the Drug recovery entry is “Active”.

For `Cc1cc2c(c(C)c1CCO)C(=O)[C@](C)(CO)[C@H]2O`, in series [1], the Drug recovery result is “metabolite_detected”. In addition, the Retention_time in series [2] is on record as 14.12 min.

Consider `Cc1cc2c(c(C)c1CCO)C(=O)[C@](C)(CO[C@@H]1O[C@H](C(=O)O)[C@@H](O)[C@H](O)[C@H]1O)C2`, for which, in series [1], the Drug recovery entry was “metabolite_detected”. Further, the Retention_time in series [2] is given as 32.08 min.

`Cc1cc2c(c(C)c1CC(=O)O)C(=O)[C@](C)(CO)C2`: the Drug recovery entry in series [1] is given as “metabolite_detected”. Also, the Retention_time in series [2] is on record as 37.27 min.

`Cc1c(CCO)c(CO)cc2c1C(=O)[C@](C)(CO)C2`: the Drug recovery entry in series [1] is on record as “metabolite_detected”. Moreover, in series [2], the Retention_time was 20.2 min.

In the case of `Cc1cc2c(c(C)c1CCO)C(=O)[C@](C)(CO)[C@@H]2O`, the Drug recovery entry in series [1] is reported as “metabolite_detected”. Besides, in series [2], the Retention_time is given as 20.74 min.

Regarding `Cc1c2c(cc3c1C(=O)[C@](C)(CO)C3)COC(=O)C2`, the Drug recovery result in series [1] was “metabolite_detected”. Also, the Retention_time in series [2] came to 23.37 min.

With `Cc1c(CCO)c(CO)cc2c1C(=O)C(C)C2` (racemic), the Drug recovery result in series [1] is listed as “metabolite_detected”. For the same molecule, the Retention_time in series [2] was found to be 29.61 min.

One may read the IC50 as the point on the concentration scale where inhibition reaches its midpoint. Read a low IC50 as inhibition by little substance. With `Cc1cc2c(c(C)c1CC(=O)O)C(=O)C(C)C2` (racemic), in series [1], the Drug recovery entry was “metabolite_detected”. In addition, in series [2], the Retention_time came to 48.39 min. Moreover, the IC50 in series [6] stood at 30 µg/mL (≈ 129 µM).

As to `Cc1cc2c(c(C)c1C(O)CO)C(=O)C(C)C2` (racemic), in series [1], the Drug recovery result is on record as “metabolite_detected”. Further, the Retention_time in series [2] came out at 35.09 min.

For `Cc1cc2c(c(C)c1CCO)C(=O)C(C)C2` (racemic), the Drug recovery entry in series [1] is recorded as “metabolite_detected”. In addition, in series [2], the Retention_time is 49.54 min. This molecule also showed an IC50 in series [7] of 8.7 µg/mL (≈ 39.9 µM).
